Reference: ChEMBL document CHEMBL5291721, “A preclinical secondary pharmacology resource illuminates target-adverse drug reaction associations of marketed drugs” (Nat Commun, 2023)

Key:
Histamine H1 receptor = Histamine H1 receptor (Homo sapiens, UniProt P35367)
[1] = target: Gamma-aminobutyric acid receptor subunit alpha-1 (Rattus norvegicus, UniProt P62813); assay type: functional
[2] = target: Delta-type opioid receptor (Homo sapiens, UniProt P41143)
[3] = target: cGMP-inhibited 3',5'-cyclic phosphodiesterase 3A (Homo sapiens, UniProt Q14432); assay type: functional
Chain of cGMP-inhibited 3',5'-cyclic phosphodiesterase 3A (Q14432 whole entry): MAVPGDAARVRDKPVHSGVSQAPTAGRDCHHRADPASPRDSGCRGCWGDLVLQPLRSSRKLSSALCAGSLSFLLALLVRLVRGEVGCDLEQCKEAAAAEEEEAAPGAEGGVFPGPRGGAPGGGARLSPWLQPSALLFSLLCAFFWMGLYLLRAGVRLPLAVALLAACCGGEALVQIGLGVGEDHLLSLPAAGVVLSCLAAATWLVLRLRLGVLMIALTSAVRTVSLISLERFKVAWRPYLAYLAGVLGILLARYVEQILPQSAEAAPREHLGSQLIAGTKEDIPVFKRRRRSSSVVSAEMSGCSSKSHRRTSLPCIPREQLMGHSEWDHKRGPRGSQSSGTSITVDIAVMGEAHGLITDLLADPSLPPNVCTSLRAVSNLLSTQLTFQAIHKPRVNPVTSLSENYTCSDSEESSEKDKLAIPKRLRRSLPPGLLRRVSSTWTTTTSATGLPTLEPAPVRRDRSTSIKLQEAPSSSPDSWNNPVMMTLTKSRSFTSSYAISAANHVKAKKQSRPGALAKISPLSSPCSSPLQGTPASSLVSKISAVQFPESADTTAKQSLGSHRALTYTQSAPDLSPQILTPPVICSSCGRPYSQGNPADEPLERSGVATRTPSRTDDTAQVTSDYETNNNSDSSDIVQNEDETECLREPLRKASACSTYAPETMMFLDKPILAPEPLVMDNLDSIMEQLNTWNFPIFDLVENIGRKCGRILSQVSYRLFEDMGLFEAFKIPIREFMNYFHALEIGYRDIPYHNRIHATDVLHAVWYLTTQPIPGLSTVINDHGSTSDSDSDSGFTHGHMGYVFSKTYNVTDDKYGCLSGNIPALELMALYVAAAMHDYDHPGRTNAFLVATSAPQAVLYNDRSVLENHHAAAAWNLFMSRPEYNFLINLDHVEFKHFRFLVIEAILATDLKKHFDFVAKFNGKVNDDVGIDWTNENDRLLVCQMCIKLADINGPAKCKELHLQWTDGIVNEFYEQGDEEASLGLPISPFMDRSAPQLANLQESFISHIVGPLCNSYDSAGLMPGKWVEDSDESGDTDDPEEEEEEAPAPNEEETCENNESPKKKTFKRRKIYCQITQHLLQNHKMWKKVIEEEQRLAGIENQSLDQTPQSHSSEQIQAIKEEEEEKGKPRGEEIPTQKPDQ

[4] = target: Glutamate receptor ionotropic, NMDA 1 (Rattus norvegicus, UniProt P35439)
[5] = target: 3',5'-cyclic-AMP phosphodiesterase 4D (Homo sapiens, UniProt Q08499); assay type: functional
Chain of 3',5'-cyclic-AMP phosphodiesterase 4D (Q08499 whole entry): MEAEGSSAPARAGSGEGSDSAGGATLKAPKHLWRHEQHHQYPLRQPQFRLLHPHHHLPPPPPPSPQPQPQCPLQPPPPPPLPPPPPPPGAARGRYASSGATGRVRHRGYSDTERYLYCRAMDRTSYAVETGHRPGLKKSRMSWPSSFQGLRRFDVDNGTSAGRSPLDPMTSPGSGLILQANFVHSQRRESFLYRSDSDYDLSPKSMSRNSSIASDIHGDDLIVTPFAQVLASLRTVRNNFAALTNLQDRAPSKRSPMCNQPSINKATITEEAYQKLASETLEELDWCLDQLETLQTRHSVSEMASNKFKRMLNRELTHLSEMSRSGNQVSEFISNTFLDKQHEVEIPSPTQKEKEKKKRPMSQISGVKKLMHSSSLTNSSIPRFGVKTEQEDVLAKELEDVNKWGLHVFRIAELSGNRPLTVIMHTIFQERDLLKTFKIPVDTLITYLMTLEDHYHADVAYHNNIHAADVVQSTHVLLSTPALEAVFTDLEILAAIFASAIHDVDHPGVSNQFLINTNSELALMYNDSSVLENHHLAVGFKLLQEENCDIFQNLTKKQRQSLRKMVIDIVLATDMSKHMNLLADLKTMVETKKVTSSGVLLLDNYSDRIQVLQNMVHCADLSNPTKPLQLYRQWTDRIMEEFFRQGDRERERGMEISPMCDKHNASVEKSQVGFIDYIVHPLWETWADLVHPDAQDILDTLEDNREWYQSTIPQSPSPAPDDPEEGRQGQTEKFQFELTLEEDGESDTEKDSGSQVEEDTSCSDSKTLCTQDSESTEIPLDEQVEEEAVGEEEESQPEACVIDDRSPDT

[6] = target: T1, 5-hydroxytryptamine receptor 1A (Homo sapiens, UniProt P08908); assay type: functional, cell-based
T1 sequence (P08908 whole entry): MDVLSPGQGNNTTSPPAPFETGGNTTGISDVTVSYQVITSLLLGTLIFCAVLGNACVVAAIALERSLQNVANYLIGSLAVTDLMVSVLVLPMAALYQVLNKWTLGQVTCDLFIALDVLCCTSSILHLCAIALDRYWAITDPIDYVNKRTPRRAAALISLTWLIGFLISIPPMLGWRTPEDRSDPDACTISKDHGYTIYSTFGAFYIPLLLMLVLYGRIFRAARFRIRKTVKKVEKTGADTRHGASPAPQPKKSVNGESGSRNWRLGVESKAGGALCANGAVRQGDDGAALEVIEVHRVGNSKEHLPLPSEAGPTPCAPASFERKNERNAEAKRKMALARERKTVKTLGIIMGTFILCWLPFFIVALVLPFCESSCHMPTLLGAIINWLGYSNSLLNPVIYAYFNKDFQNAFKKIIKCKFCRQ

[7] = target: T2, 5-hydroxytryptamine receptor 2C (Homo sapiens, UniProt P28335)
T2 sequence (P28335 whole entry): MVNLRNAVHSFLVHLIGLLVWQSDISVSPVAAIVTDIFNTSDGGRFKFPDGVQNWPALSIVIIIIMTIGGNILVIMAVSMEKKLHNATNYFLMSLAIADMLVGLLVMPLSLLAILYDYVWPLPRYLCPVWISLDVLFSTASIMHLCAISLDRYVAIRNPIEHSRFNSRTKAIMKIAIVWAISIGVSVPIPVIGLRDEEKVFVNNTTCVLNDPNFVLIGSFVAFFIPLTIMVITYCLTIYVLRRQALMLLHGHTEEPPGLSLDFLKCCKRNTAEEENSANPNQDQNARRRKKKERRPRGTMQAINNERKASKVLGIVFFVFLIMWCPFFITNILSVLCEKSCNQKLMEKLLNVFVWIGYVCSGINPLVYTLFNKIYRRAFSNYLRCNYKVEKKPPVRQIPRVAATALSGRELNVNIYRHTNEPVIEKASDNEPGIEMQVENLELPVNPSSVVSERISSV

Adenosine receptor A2a = Adenosine receptor A2a (Homo sapiens, UniProt P29274)
Chain of Adenosine receptor A2a (P29274 whole entry): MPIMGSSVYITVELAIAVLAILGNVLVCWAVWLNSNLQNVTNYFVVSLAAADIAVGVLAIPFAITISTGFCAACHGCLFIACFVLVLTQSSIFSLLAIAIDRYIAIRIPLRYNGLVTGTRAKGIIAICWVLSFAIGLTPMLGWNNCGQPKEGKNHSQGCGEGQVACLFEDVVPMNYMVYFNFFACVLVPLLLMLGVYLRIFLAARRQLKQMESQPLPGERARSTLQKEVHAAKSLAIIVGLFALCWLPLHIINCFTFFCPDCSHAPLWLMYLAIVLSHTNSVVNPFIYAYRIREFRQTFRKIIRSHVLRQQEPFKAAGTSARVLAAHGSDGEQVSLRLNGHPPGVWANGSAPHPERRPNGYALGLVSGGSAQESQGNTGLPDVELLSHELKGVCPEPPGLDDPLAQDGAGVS

[8] = target: T3, Alpha-2B adrenergic receptor (Homo sapiens, UniProt P18089)
T3 sequence (P18089 whole entry): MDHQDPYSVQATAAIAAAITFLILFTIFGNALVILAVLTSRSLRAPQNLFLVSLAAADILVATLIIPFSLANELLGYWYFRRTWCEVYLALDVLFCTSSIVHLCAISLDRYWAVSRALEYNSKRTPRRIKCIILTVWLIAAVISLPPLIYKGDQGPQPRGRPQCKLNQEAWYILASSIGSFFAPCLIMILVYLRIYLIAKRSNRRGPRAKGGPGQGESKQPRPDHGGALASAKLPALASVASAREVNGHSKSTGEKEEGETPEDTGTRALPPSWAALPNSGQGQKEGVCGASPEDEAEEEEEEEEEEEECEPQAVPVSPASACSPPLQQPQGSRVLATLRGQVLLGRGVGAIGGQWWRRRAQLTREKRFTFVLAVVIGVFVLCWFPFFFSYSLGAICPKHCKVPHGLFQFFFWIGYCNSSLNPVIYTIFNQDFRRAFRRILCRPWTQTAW

Melanocortin receptor 3 = Melanocortin receptor 3 (Homo sapiens, UniProt P41968)
Chain of Melanocortin receptor 3 (P41968 whole entry): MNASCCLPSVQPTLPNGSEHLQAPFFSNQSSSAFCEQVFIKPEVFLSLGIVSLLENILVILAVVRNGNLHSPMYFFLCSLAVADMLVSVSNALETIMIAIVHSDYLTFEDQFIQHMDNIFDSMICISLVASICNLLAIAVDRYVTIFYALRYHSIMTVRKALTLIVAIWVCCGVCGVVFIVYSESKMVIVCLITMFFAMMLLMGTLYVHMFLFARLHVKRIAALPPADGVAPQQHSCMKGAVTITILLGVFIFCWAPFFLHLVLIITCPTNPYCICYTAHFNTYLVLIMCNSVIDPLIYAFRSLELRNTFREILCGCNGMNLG

Histamine H3 receptor = Histamine H3 receptor (Homo sapiens, UniProt Q9Y5N1)
Chain of Histamine H3 receptor (Q9Y5N1 whole entry): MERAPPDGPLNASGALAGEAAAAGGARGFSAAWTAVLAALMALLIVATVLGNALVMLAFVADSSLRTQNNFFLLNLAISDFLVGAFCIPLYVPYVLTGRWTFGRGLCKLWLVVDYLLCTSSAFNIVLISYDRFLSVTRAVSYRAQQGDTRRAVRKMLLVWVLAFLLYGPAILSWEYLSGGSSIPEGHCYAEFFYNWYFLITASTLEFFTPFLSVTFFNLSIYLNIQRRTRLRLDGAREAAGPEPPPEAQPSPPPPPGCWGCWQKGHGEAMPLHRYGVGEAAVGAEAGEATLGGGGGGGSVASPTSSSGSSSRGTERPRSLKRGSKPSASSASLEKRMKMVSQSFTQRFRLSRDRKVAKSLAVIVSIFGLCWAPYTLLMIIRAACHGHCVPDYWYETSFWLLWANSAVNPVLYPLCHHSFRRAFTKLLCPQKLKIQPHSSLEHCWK
Further: assay procedure not described here.

Chain of Gamma-aminobutyric acid receptor subunit alpha-1 (P62813 whole entry): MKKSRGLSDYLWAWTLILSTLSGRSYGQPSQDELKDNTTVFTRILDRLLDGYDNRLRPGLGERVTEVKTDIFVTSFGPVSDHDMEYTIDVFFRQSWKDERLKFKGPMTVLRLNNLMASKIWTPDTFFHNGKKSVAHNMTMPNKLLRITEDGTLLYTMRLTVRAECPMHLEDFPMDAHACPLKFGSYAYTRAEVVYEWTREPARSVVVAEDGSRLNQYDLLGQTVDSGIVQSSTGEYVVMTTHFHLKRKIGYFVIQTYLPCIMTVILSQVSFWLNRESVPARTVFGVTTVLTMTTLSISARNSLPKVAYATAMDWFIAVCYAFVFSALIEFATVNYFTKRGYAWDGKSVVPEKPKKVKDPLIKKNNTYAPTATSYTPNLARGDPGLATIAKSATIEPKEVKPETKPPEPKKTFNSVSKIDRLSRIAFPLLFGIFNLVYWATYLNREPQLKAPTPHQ
Chain of Delta-type opioid receptor (P41143 whole entry): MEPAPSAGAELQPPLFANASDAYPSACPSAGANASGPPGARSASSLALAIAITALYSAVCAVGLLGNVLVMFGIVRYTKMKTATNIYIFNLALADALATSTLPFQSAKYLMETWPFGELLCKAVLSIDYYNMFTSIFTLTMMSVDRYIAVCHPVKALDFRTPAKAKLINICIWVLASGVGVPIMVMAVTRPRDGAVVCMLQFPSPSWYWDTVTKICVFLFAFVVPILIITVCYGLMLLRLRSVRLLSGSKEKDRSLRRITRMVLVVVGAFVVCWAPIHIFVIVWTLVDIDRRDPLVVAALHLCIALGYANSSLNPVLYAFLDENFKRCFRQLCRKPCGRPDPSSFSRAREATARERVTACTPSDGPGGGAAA
Chain of Histamine H1 receptor (P35367 whole entry): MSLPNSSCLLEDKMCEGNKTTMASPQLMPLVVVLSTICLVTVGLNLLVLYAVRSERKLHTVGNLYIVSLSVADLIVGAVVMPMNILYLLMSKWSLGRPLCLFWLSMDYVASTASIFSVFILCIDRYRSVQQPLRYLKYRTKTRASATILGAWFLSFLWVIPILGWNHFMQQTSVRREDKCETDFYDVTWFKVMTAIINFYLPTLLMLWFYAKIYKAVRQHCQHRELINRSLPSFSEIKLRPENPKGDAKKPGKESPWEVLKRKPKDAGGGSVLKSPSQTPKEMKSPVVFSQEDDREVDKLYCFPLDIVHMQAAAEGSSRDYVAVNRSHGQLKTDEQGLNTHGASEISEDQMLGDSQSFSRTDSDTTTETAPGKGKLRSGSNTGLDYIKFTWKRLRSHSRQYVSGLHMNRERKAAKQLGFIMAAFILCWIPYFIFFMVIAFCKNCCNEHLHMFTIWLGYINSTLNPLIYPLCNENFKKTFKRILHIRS

| Structure (SMILES) | AC50 (Histamine H1 receptor) [µM] | AC50 [1] [µM] | AC50 [2] [µM] | AC50 [3] [µM] | AC50 [4] [µM] | AC50 [5] [µM] | AC50 [6] [µM] | AC50 [7] [µM] | AC50 (Adenosine receptor A2a) [µM] | AC50 [8] [µM] | AC50 (Melanocortin receptor 3) [µM] | AC50 (Histamine H3 receptor) [µM] |
| --- | --- | --- | --- | --- | --- | --- | --- | --- | --- | --- | --- | --- |
| O=C(O)CCCCCCCC(=O)O [AZELAIC ACID] | > 10 | > 10 | > 30 | > 30 | > 10 | > 30 | > 10 | > 30 | > 10 | > 10 | > 10 |  |
| Cn1c(=O)c2c(ncn2CC2OCCO2)n(C)c1=O [DOXOFYLLINE] |  | > 30 | > 30 | > 30 | > 30 | > 30 | > 30 | > 30 | > 30 |  | > 30 | > 30 |
| C[C@]12CC[C@H]3[C@@H](CCC4=CC(=O)CC[C@@]43C)[C@@H]1CC[C@@H]2O [TESTOSTERONE] |  | > 10 | > 30 | > 30 | > 10 | > 30 | > 10 | > 30 | > 10 |  | > 10 |  |
| CNS(=O)(=O)Cc1ccc2[nH]cc(CCN(C)C)c2c1 |  | > 30 | > 30 | > 30 | > 30 | > 30 |  |  | > 30 |  | > 30 |  |
| CCCN(CCC)C(=O)C(CCC(=O)O)NC(=O)c1ccccc1 (stereo not drawn) [PROGLUMIDE] |  | > 10 | > 30 | > 30 | > 10 | > 30 | > 10 | > 30 | > 30 |  | > 30 | > 30 |
| C[C@]1(O)CC[C@H]2[C@@H]3CCC4=CC(=O)CC[C@]4(C)[C@@]3(F)[C@@H](O)C[C@@]21C [FLUOXYMESTERONE] | > 30 | > 10 | > 30 | > 30 | > 10 | > 30 | > 10 | > 30 | > 10 | > 30 | > 10 |  |
| C#C[C@]1(O)CC[C@H]2[C@@H]3CCc4cc(OC5CCCC5)ccc4[C@H]3CC[C@@]21C [QUINESTROL] | > 10 | > 10 | > 30 | > 30 | > 10 | > 30 | > 10 | > 30 | > 10 | > 10 | > 10 |  |
| Nc1nc(N)nc(-c2cc(Cl)ccc2Cl)n1 [IRSOGLADINE] |  |  |  | > 30 |  | 21.4 | > 30 |  | > 30 |  | > 30 | > 30 |
| O=C(NCCN1CCOCC1)c1ccc(Cl)cc1 [MOCLOBEMIDE] |  | > 10 | > 30 | > 30 | > 10 | > 30 | > 10 | > 30 | > 10 |  | > 10 |  |
| CNC(C)CCC=C(C)C (stereo not drawn) [ISOMETHEPTENE] |  |  |  |  |  |  |  |  | > 30 |  | > 30 | > 30 |
| CCCC(=O)O[C@]1(C(=O)CO)CC[C@H]2[C@@H]3CCC4=CC(=O)CC[C@]4(C)[C@H]3[C@@H](O)C[C@@]21C [HYDROCORTISONE BUTYRATE] | > 10 | > 10 | > 30 | > 30 | > 10 | > 30 | > 10 | > 30 | > 10 | > 10 | > 10 |  |
| CCN(CC)C(=O)N[C@H]1C[C@@H]2c3cccc4[nH]cc(c34)C[C@H]2N(C)C1 [TERGURIDE] | 2.1 | > 30 | > 30 | > 30 | > 30 | > 30 | 0.18 | 0.21 | > 30 |  | > 30 | > 30 |
| C[C@](N)(Cc1ccc(O)c(O)c1)C(=O)O [METHYLDOPA] |  | > 10 | > 30 | > 30 | > 10 | > 30 | > 10 | > 30 | > 30 |  | > 10 |  |
